{"source": "patent US20240060139A1", "about": "“TREATMENT RESPONSE SIGNATURES” (Caris MPI, Inc., priority 2020, published 2024)", "tested_on": "ovarian cancers", "assay": "Kaplan Meier overall survival on platinum therapy against gene copy number at 5q1x and 3q2x (control analysis)", "format": "in vivo", "details": "MAP3K1, IL6ST, PIK3R1 copy number; FIGS. 3F-H", "from_the_text": "We then asked whether loss of the PARP15 and PARP8 would also correlate with response or lack of response to PARPi therapy. For this analysis we looked at DNA copy number determined using next-generation sequencing of a panel of 592 genes. See Example 1. […] Without being bound by theory, loss at a one gene is highly correlated with loss of neighboring genes. As a control, we repeated the analysis shown in FIGS. 3C-E but used response to platinum compounds instead of PARPi, specifically carboplatin. […] As a control, we repeated the analysis shown in FIGS. 3I-K but used response to platinum compounds instead of PARPi.", "data": [{"smiles": "N.N.O=C([O-])C1(C(=O)[O-])CCC1.[Pt+2]", "note": "[carboplatin]", "values": [{"measurement": "response to platinum therapy (overall survival) by gene copy number at 5q1x", "result": "loss of copy number at 5q1x was correlated of positive benefit of platinum therapy"}]}]}
